Assay results as given in patent US10471046B2, “Method for treating, preventing, or reducing the risk of skin infection” (Melinta Subsidiary Corp., priority 2014, dated 2019).
In brackets after ≈: the same amount, converted by molar mass. Read-outs that look alike come from different tables or passages of the source.

System: S. aureus
Test: Minimum inhibitory concentrations (MICs) for S. aureus of exemplary compounds (Table 2)
Type: cell-based
Conditions: Staphylococcus aureus, read-out: MICs
Procedure, shortened: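 MICs (μg/mL) against S. aureus come from microtiter-tray dilution susceptibility testing per NCCLS M7-A5, comparing growth with and without compound.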

[1] = minimum inhibitory concentrations for S. aureus

| SMILES | MIC [1] [µg/mL] | MIC [µg/mL] |
| --- | --- | --- |
| CC(=O)NC[C@H]1CN(c2ccc(-c3ccc(/C=N/N4CCOCC4)cc3)c(F)c2)C(=O)O1 [Compound 2056, N-{3-[2-Fluoro-4′-(morpholin-4-yliminomethyl)-biphenyl-4-yl]-2-oxo-oxazolidin-5-(S)-ylmethyl}-acetamide] | 0.25 (≈ 0.568 µM) |  |
| CC(=O)NC[C@H]1CN(c2ccc(-c3ccc(CN4CCSCC4)cc3)c(F)c2)C(=O)O1 [Compound 1064, N-[3-(2-Fluoro-4′-thiomorpholin-4-ylmethyl-biphenyl-4-yl)-2-oxo-oxazolidin-5-(S)-ylmethyl]-acetamide] | 2 (≈ 4.51 µM) |  |
| CC(=O)NC[C@H]1CN(c2ccc(-c3ccc(CNC(=O)c4ccc5c(c4)OCO5)cc3)c(F)c2)C(=O)O1 [Compound 4014, Benzo[1,3]dioxole-5-carboxylic acid {4′-[5-(S)-(acetylamino-methyl)-2-oxo-oxazolidin-3-yl]-2′-fluoro-biphenyl-4-ylmethyl}-amide] | 4 (≈ 7.91 µM) |  |
| CC(=O)NC[C@H]1CN(c2ccc(-c3ccc(CNC(=O)C(N)c4cccnc4)cc3)c(F)c2)C(=O)O1 (stereo partly drawn) [Compound 4294, N-{4′-[5-(S)-(Acetylamino-methyl)-2-oxo-oxazolidin-3-yl]-2′-fluoro-biphenyl-4-ylmethyl}-2-amino-2-pyridin-3-yl-acetamide] | 4 (≈ 8.14 µM) |  |
| CC(=O)NC[C@H]1CN(c2ccc(-c3ccc(CNC(=O)C4CN(C(=O)OC(C)(C)C)C4)cc3)c(F)c2)C(=O)O1 [Compound 4290, 3-({4′-[5-(S)-(Acetylamino-methyl)-2-oxo-oxazolidin-3-yl]-2′-fluoro-biphenyl-4-ylmethyl}-carbamoyl)-azetidine-1-carboxylic acid tert-butyl ester] | 16 (≈ 29.6 µM) |  |
| CC(=O)NC[C@H]1CN(c2ccc(-c3ccc(CN(C)Cc4cccnc4)cc3)c(F)c2)C(=O)O1 [Compound 4047, N-(3-{2-Fluoro-4′-[(methyl-pyridin-3-ylmethyl-amino)-methyl]-biphenyl-4-yl}-2-oxo-oxazolidin-5-(S)-ylmethyl)-acetamide] | 2 (≈ 4.32 µM) |  |
| CC(=O)NC[C@H]1CN(c2ccc(-c3ccc(CNC(=O)C4(NC(=O)OC(C)(C)C)CC4)cc3)c(F)c2)C(=O)O1 [Compound 4304, [1-({4′-[5-(S)-(Acetylamino-methyl)-2-oxo-oxazolidin-3-yl]-2′-fluoro-biphenyl-4-ylmethyl}-carbamoyl)-cyclopropyl]-carbamic acid tert-butyl ester] | 16 (≈ 29.6 µM) |  |
| CC(=O)NC[C@H]1CN(c2ccc(-c3ccc([C@H](O)CN4CCC4)cc3)c(F)c2)C(=O)O1 [Compound 1062, N-{3-[4′-(2-Azetidin-1-yl-1-(S)-hydroxy-ethyl)-2-fluoro-biphenyl-4-yl]-2-oxo-oxazolidin-5-(S)-ylmethyl}-acetamide] | 8 (≈ 18.7 µM) |  |
| CC(=O)NC[C@H]1CN(c2ccc(-c3ccc(C[S+]([O-])c4ccccn4)cc3)c(F)c2)C(=O)O1 (stereo partly drawn) [Compound 2023, N-{3-[2-Fluoro-4′-(pyridine-2-sulfinylmethyl)-biphenyl-4-yl]-2-oxo-oxazolidin-5-(S)-ylmethyl}-acetamide] | 1 (≈ 2.14 µM) |  |
| CC(=O)NC[C@H]1CN(c2ccc(-c3ccc(CNCc4c(CO)cnc(C)c4O)cc3)c(F)c2)C(=O)O1 [Compound 4095, N-[3-(2-Fluoro-4′-{[(3-hydroxy-5-hydroxymethyl-2-methyl-pyridin-4-ylmethyl)-amino]-methyl}-biphenyl-4-yl)-2-oxo-oxazolidin-5-(S)-ylmethyl]-acetamide] | 4 (≈ 7.87 µM) |  |
| CC(=O)NC[C@H]1CN(c2cc(F)c(-c3ccc(Cn4cc(CN(C)C)nn4)cc3)c(F)c2)C(=O)O1 [Compound 1019, N-{3-[4′-(4-Dimethylaminomethyl-[1,2,3]triazol-1-ylmethyl)-2,6-difluoro-biphenyl-4-yl]-2-oxo-oxazolidin-5-(S)-ylmethyl}-acetamide] |  | 2 (≈ 4.13 µM) |
| CC(=O)NC[C@H]1CN(c2ccc(-c3ccc(CNCCCc4cn[nH]c4C)cc3)c(F)c2)C(=O)O1 [Compound 4148, N-[3-(2-Fluoro-4′-{[3-(5-methyl-1H-pyrazol-4-yl)-propylamino]-methyl}-biphenyl-4-yl)-2-oxo-oxazolidin-5-(S)-ylmethyl]-acetamide] | 2 (≈ 4.17 µM) |  |
| CC(=O)NC[C@H]1CN(c2ccc(-c3ccc(CNCc4c(C)nn(C)c4C)cc3)c(F)c2)C(=O)O1 [Compound 4163, N-[3-(2-Fluoro-4′-{[(1,3,5-trimethyl-1H-pyrazol-4-ylmethyl)-amino]-methyl}-biphenyl-4-yl)-2-oxo-oxazolidin-5-(S)-ylmethyl]-acetamide] | 8 (≈ 16.7 µM) |  |
| CC(=O)NC[C@H]1CN(c2ccc(-c3ccc(CN4CCN(CCO)CC4)cc3)c(F)c2)C(=O)O1 [Compound 1029, N-(3-{2-Fluoro-4′-[4-(2-hydroxy-ethyl)-piperazin-1-ylmethyl]-biphenyl-4-yl}-2-oxo-oxazolidin-5-(S)-ylmethyl)-acetamide] | 2 (≈ 4.25 µM) |  |
| CC(=O)NC[C@H]1CN(c2ccc(-c3ccc(Cn4cnc5c(NCCO)ncnc54)cc3)c(F)c2)C(=O)O1 [Compound 1099, N-(3-{2-Fluoro-4′-[6-(2-hydroxy-ethylamino)-purin-9-ylmethyl]-biphenyl-4-yl}-2-oxo-oxazolidin-5-(S)-ylmethyl)-acetamide] | 2 (≈ 3.85 µM) |  |
| CC(=O)NC[C@H]1CN(c2ccc(-c3ccc(CNCc4cccc(C#N)c4)cc3)c(F)c2)C(=O)O1 [Compound 4070, N-(3-{4′-[(3-Cyano-benzylamino)-methyl]-2-fluoro-biphenyl-4-yl}-2-oxo-oxazolidin-5-(S)-ylmethyl)-acetamide] | 1 (≈ 2.12 µM) |  |

Continued by falling MIC [1], values first:

| MIC [1] [µg/mL] | SMILES | MIC [µg/mL] |
| --- | --- | --- |
| 128 (≈ 199 µM) | CC(=O)NC[C@H]1CN(c2ccc(-c3ccc(CNC(=O)[C@@H](Cc4c[nH]c5ccccc45)NC(=O)OC(C)(C)C)cc3)c(F)c2)C(=O)O1 [Compound 4308, [1-(R)-({4′-[5-(S)-(Acetylamino-methyl)-2-oxo-oxazolidin-3-yl]-2′-fluoro-biphenyl-4-ylmethyl}-carbamoyl)-2-(1H-indol-3-yl)-ethyl]-carbamic acid tert-butyl ester] |  |
| 16 | CC(=O)NC[C@H]1CN(c2ccc(-c3ccc(CNCCC4CCCN4C)cc3)c(F)c2)C(=O)O1 (mixture of isomers) [Compound 4150, N-[3-(2-Fluoro-4′-{[2-(R/S)-(1-methyl-pyrrolidin-2-yl)-ethylamino]-methyl}-biphenyl-4-yl)-2-oxo-oxazolidin-5-(S)-ylmethyl]-acetamide] |  |
| 4 (≈ 9.36 µM) | CC(=O)NC[C@H]1CN(c2ccc(-c3ccc(CN4CC[C@H](O)C4)cc3)c(F)c2)C(=O)O1 [Compound 1087, N-{3-[2-Fluoro-4′-(3-(S)-hydroxy-pyrrolidin-1-ylmethyl)-biphenyl-4-yl]-2-oxo-oxazolidin-5-(S)-ylmethyl}-acetamide] |  |
| 4 (≈ 6.73 µM) | CC(=O)NC[C@H]1CN(c2ccc(-c3ccc(CNCCCNc4ncc(C(F)(F)F)cc4Cl)cc3)c(F)c2)C(=O)O1 [Compound 5015, N-[3-(4′-{[3-(3-Chloro-5-trifluoromethyl-pyridin-2-ylamino)-propylamino]-methyl}-2-fluoro-biphenyl-4-yl)-2-oxo-oxazolidin-5-(S)-ylmethyl]-acetamide] |  |
| 2 (≈ 4.42 µM) | CNCc1cn(Cc2ccc(-c3ccc(N4C[C@H](CNC(C)=O)OC4=O)cc3F)cc2)nn1 [Compound 1012, N-{3-[2-Fluoro-4′-(4-methylaminomethyl-[1,2,3]triazol-1-ylmethyl)-biphenyl-4-yl]-2-oxo-oxazolidin-5-(S)-ylmethyl}-acetamide] |  |
| 2 (≈ 4.56 µM) | CC(=O)NC[C@H]1CN(c2ccc(-c3ccc(CNCc4cocn4)cc3)c(F)c2)C(=O)O1 [Compound 4234, N-[3-(2-Fluoro-4′-{[(oxazol-4-ylmethyl)-amino]-methyl}-biphenyl-4-yl)-2-oxo-oxazolidin-5-(S)-ylmethyl]-acetamide] |  |
| 2 (≈ 4.3 µM) | CC(=O)NC[C@H]1CN(c2ccc(-c3ccc(COCc4cc[n+]([O-])cc4)cc3)c(F)c2)C(=O)O1 [Compound 4198, N-{3-[2-Fluoro-4′-(1-oxy-pyridin-4-ylmethoxymethyl)-biphenyl-4-yl]-2-oxo-oxazolidin-5-(S)-ylmethyl}-acetamide] |  |
| 1 (≈ 2.23 µM) | CC(=O)NC[C@H]1CN(c2ccc(-c3ccc(CNCc4cccnc4)cc3)c(F)c2)C(=O)O1 [Compound 4025, N-[3-(2-Fluoro-4′-{[(pyridin-3-ylmethyl)-amino]-methyl}-biphenyl-4-yl)-2-oxo-oxazolidin-5-(S)-ylmethyl]-acetamide] |  |
| 1 (≈ 2.02 µM) | CC(=O)NC[C@H]1CN(c2ccc(-c3ccc(CNCCSc4ncccn4)cc3)c(F)c2)C(=O)O1 [Compound 5009, N-[3-(2-Fluoro-4′-{[2-(pyrimidin-2-ylsulfanyl)-ethylamino]-methyl}-biphenyl-4-yl)-2-oxo-oxazolidin-5-(S)-ylmethyl]-acetamide] |  |
| 1 (≈ 1.92 µM) | CC(=O)NC[C@H]1CN(c2ccc(-c3ccc(CNC(=O)/C=C/c4cncn(C)c4=O)cc3)c(F)c2)C(=O)O1 [Compound 4007, N-{4′-[5-(S)-(Acetylamino-methyl)-2-oxo-oxazolidin-3-yl]-2′-fluoro-biphenyl-4-ylmethyl}-3-(1-methyl-6-oxo-1,6-dihydro-pyrimidin-5-yl)-acrylamide] |  |
| 1 (≈ 2.42 µM) | CC(=O)NC[C@H]1CN(c2ccc(-c3ccc(CN4CCCO4)cc3)c(F)c2)C(=O)O1 [Compound 1112, N-[3-(2-Fluoro-4′-isoxazolidin-2-ylmethyl-biphenyl-4-yl)-2-oxo-oxazolidin-5-(S)-ylmethyl]-acetamide] |  |
| 1 (≈ 2.09 µM) | COc1ccc(CNCc2ccc(-c3ccc(N4C[C@H](CNC(C)=O)OC4=O)cc3F)cc2)cn1 [Compound 4054, N-[3-(2-Fluoro-4′-{[(6-methoxy-pyridin-3-ylmethyl)-amino]-methyl}-biphenyl-4-yl)-2-oxo-oxazolidin-5-(S)-ylmethyl]-acetamide] |  |
| 0.5 (≈ 1.18 µM) | CC(=O)NC[C@H]1CN(c2ccc(-c3ccc(Cn4nnnc4C)cc3)c(F)c2)C(=O)O1 [Compound 1058, N-{3-[2-Fluoro-4′-(5-methyl-tetrazol-1-ylmethyl)-biphenyl-4-yl]-2-oxo-oxazolidin-5-(S)-ylmethyl}-acetamide] |  |
| 0.5 (≈ 1.11 µM) | CC(=O)NC[C@H]1CN(c2ccc(-c3ccc(CNNc4ccccn4)cc3)c(F)c2)C(=O)O1 [Compound 2048, N-{3-[2-Fluoro-4′-(N′-pyridin-2-yl-hydrazinomethyl)-biphenyl-4-yl]-2-oxo-oxazolidin-5-(S)-ylmethyl}-acetamide] |  |
